From PubChem BioAssay AID686955 (ICCB-Longwood Screening Facility, Harvard Medical School, 2013)
The source made the active and inactive calls.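 Rule for the calls: active = compounds that shift the dex/IL-1 ratio, either lowering it activators or doubling it inhibitors, at 1 µM (some results past the limit were not filed as active); inactive = the rest.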

Tested on: NF-kB luciferase reporter cells, IL-1b + dexamethasone, 18 h
Experiment: glucocorticoid sensitivity changers, NF-kB reporter – cell-based, luciferase, IL-1B plus dexamethasone, confirmation (AID 686955)
Settings: for assay II/I ratio: 4 uM; for normalized assay II/I ratio: at 1 µM

SMILES | assay II/I ratio (dexamethasone conc 1) | assay II/I ratio (dexamethasone conc 2) | normalized assay II/I ratio | normalized assay II/I ratio (dexamethasone concentration 2)
O=C(NC1NNC2NNC(c3cccnc3)CC21)C1CC1 (stereo unspecified) | 0.597 | 0.43 | 1.91 (inactive) | 1.94
COc1cccc(-n2ncc3c(N/N=C/c4ccc(S(C)(=O)=O)cc4)ncnc32)c1 | 0.326 | 0.242 | 1.18 (inactive) | 1.17
Cn1cc(C2=C(c3ccccc3[N+](=O)[O-])C(=O)NC2=O)c2ccccc21 | 0.733 | 0.646 | 2.39 | 2.62
Cc1[nH]nc2c1N=C(c1ccccc1F)c1cc(C#N)ccc1N2 | 0.66 | 0.386 | 1.87 (inactive) | 2.07
O=C(Nc1n[nH]c2nc(-c3ccc(O)cc3)c(Br)cc12)C1CC1 | 0.935 | 0.684 | 2.27 | 2.53
Cn1cc(C2=C(c3cccc(NCC(O)CO)c3)C(=O)NC2=O)c2cc(Cl)ccc21 (stereo unspecified) | 0.664 | 0.47 | 1.93 (inactive) | 1.97
COc1ccc(O)c(C(=O)c2ccc(C(=O)O[C@H]3CCCNC[C@@H]3NC(=O)c3ccncc3)cc2)c1F | 0.85 | 0.659 | 0.93 (inactive) | 0.89
COc1cccc(-n2ncc3c(N/N=C/c4ccncc4)ncnc32)c1 | 0.504 | 0.362 | 1.47 (inactive) | 1.44
Cn1cc(C2=C(c3cccc(OCC(O)CO)c3)C(=O)NC2=O)c2ccccc21 (stereo unspecified) | 0.553 | 0.398 | 1.68 (inactive) | 1.68
